Results taken from US20190125745A1, “TREATMENT AND DIAGNOSIS OF CANCER” (Rgenix, Inc., priority 2014, published 2019).
Counter-ions that a name gives are not always drawn.

Test system: B16F10 mouse melanoma cells
Assay: Subcutaneous B16F10 tumor growth in C57BL/6 mice
Type: in vivo
Protocol: FIG. 4. Therapeutic LXR Activation Inhibits Melanoma Tumor Growth. […] Representative tumor images shown correspond to tumors extracted at the final day (d12). n=10-18 (A), 8-10 (B). (C-E) Primary tumor growth by 1×10^6 MeWo (C), […] SK-Mel-334.2 (D), and 2×10^6 SK-Mel-2 (E) human melanoma cells subcutaneously injected into immunocompromised mice. […] Tumor images shown correspond to last day of measurements. n=6-34 (C), 8 (D), 5 (E). (F) 5×10^4 B16F10 cells were injected subcutaneously into C57BL/6-WT mice. Upon tumor growth to 150 mm^3, mice were fed continuously with a control chow or a chow containing GW3965 (150 mg/kg), and tumor growth was measured daily. n=6-13. […] Tumor volume was calculated as (small diameter)^2×(large diameter)/2. […] Scale bars, 5 mm (A-D), 50 μm (J, K), 25 μm (L).
The mice were palpated daily for tumor formation and after detection of tumors measuring […] in volume, the mice were assigned to a control chow or a chow containing each respective LXR agonist: LXR-623 (20 mg/kg/day), WO-2007-002563 Ex. 19 (100 mg/kg/day), WO-2010-0138598 Ex. 9 (10 mg/kg/day or 100 mg/kg/day), or SB742881 (100 mg/kg/day). The LXR drug compounds were formulated in the mouse chow by Research Diets, Inc. Tumor dimensions were measured using digital calipers, and tumor volume was calculated as (small diameter)^2×(large diameter)/2.

## O=C(O)Cc1cccc(OCCCN(Cc2cccc(C(F)(F)F)c2Cl)CC(c2ccccc2)c2ccccc2)c1 [GW3965 108, 3-[3-[N-(2-Chloro-3-trifluoromethylbenzyl)-(2,2-diphenylethyl)amino]propyloxy] phenylacetic acid hydrochloride]
mouse, in vivo
  primary tumor growth in vivo (FIG. 4): inhibit
Tumors ~150 mm^3 at start, chow 150 mg/kg
  reduction in the growth of established large B16F10 tumors: roughly 50%
